Source: US10681909B2, “Herbicidal triazoles” (FMC Corporation, priority 2014, dated 2020)

Experiments:
corn = experiment: Test A preemergence; assay type: in vivo, Zea mays; conditions: Zea mays, pre-emergence, 240 h, 0 to 100 scale (0 no effect, 100 complete control); for Corn plant response rating (crop injury, 0 = no effect, 100 = complete kill) at 125 g/ha: 125 g ai/ha; for Corn plant response rating (crop injury, 0 = no effect, 100 = complete kill) at 500 g/ha: 500 g ai/ha, approx. 10 d
Method in brief: (§1)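 Pre- and postemergence spray tests in a loam soil–sand mixture: seeded soil received a directed spray, while established seedlings 2–10 cm high at the one- to two-leaf stage were treated over the top. Compounds were carried in non-phytotoxic solvent with surfactant.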

morningglory = experiment: Test A preemergence; assay type: in vivo, Ipomoea spp.; conditions: Ipomoea, pre-emergence, 240 h, 0 to 100 scale (0 no effect, 100 complete control), read-out: Plant response rating, Morningglory; for pest or weed control at 125 g/ha: 125 g ai/ha; for pest or weed control at 500 g/ha: 500 g ai/ha, approx. 10 d
Method in brief: as §1

nutsedge, yellow = experiment: Test C preemergence; assay type: in vivo, Cyperus esculentus; conditions: for Plant response rating (scale of 0 to 100 where 0 is no effect and 100 is complete control): Nutsedge, Yellow, preemergence; for Nutsedge, Yellow plant response rating (0 to 100): Preemergence, visual rating after 13 to 15 d
Description: Seeds of plant species selected from blackgrass (Alopecurus myosuroides), ryegrass, Italian (Italian ryegrass, Lolium multiflorum), wheat (winter wheat, Triticum aestivum), galium (catchweed bedstraw, Galium aparine), corn (Zea mays), crabgrass, large (large crabgrass, Digitaria sanguinalis), foxtail, giant, (giant foxtail, Setaria faberii), johnsongrass (Sorghum halepense), lambsquarters (Chenopodium album), morningglory (Ipomoea coccinea), nutsedge, yellow (yellow nutsedge, Cyperus esculentus), pigweed (Amaranthus retroflexus), ragweed (common ragweed, Ambrosia elatior), soybean (Glycine max), barnyardgrass (Echinochloa crus-galli), oilseed rape (Brassica napus), waterhemp (common waterhemp, Amaranthus rudis), and velvetleaf (Abutilon theophrasti) were planted into a blend of loam soil and sand and treated preemergence with test chemicals formulated in a non-phytotoxic solvent mixture which included a surfactant. At the same time, plants selected from these crop and weed species and also chickweed (common chickweed, Stellaria media), oat, wild (wild oat, Avena fatua), and kochia (Kochia scoparia), were planted in pots containing Sunshine Redi-Earth® planting medium comprising spaghnum peat moss, vermiculite, starter nutrients and dolomitic limestone and treated with postemergence applications of test chemicals formulated in the same manner. Plants ranged in height from 2 to 18 cm (1- to 4-leaf stage) for postemergence treatments. […] A dash (-) response means no test result.

blackgrass = experiment: Test A postemergence; assay type: in vivo, Alopecurus myosuroides; conditions: 0 to 100 scale (0 no effect, 100 complete control), approx. 10 d
Description: (§2) Seeds of plant species selected from barnyardgrass (Echinochloa crus-galli), crabgrass, large (large crabgrass, Digitaria sanguinalis), kochia (Kochia scoparia), ragweed (common ragweed, Ambrosia elatior), foxtail, giant (giant foxtail, Setaria faberii), morningglory (Ipomoea spp.), pigweed (Amaranthus retroflexus), velvetleaf (Abutilon theophrasti), ryegrass, Italian (Italian ryegrass, Lolium multiflorum), wheat (Triticum aestivum), and corn (Zea mays) were planted into a blend of loam soil and sand and treated preemergence with a directed soil spray using test chemicals formulated in a non-phytotoxic solvent mixture which included a surfactant.
(§3) At the same time, plants selected from these crop and weed species and also blackgrass (Alopecurus myosuroides), and galium (catchweed bedstraw, Galium aparine), were planted in pots containing the same blend of loam soil and sand and treated with postemergence applications of test chemicals formulated in the same manner. Plants ranged in height from 2 to 10 cm and were in the one- to two-leaf stage for the postemergence treatment. Treated plants and untreated controls were maintained in a greenhouse for approximately 10 d, after which time all treated plants were compared to untreated controls and visually evaluated for injury. Plant response ratings, summarized in Table A, are based on a 0 to 100 scale where 0 is no effect and 100 is complete control. A dash (-) response means no test result.

ragweed = experiment: Test A preemergence; assay type: in vivo, Ambrosia elatior; conditions: 0 to 100 scale (0 no effect, 100 complete control)
Description: as §2, §3

## Cn1nc(-c2ccc(F)cc2)nc1Oc1cccc(C(F)(F)F)c1 [Compound 5, 3-(4-fluorophenyl)-1-methyl-5-[3-(trifluoromethyl)phenoxy]-1H-1,2,4-triazole]
corn
  Corn plant response rating (crop injury, 0 = no effect, 100 = complete kill) at 125 g/ha: 0%
  Corn plant response rating (crop injury, 0 = no effect, 100 = complete kill) at 500 g/ha: 0%
morningglory
  pest or weed control at 125 g/ha: 0%
  pest or weed control at 500 g/ha: 0%

## CCCc1nc(-c2ccc(F)cc2)nn1Cc1ccnc(C(F)(F)F)c1 [Compound 6, 4-[[3-(4-fluorophenyl)-5-propyl-1H-1,2,4-triazol-1-yl]methyl]-2-(trifluoromethyl)pyridine]
corn
  Corn plant response rating (crop injury, 0 = no effect, 100 = complete kill) at 125 g/ha: 20%
  Corn plant response rating (crop injury, 0 = no effect, 100 = complete kill) at 500 g/ha: 30%
morningglory
  pest or weed control at 125 g/ha: 50%
  pest or weed control at 500 g/ha: 100%
nutsedge, yellow; 125 g ai/ha
  Plant response rating (scale of 0 to 100 where 0 is no effect and 100 is complete control): 35
nutsedge, yellow; 250 g ai/ha
  Plant response rating (scale of 0 to 100 where 0 is no effect and 100 is complete control): 50
nutsedge, yellow; 31 g ai/ha
  Nutsedge, Yellow plant response rating (0 to 100): 25
nutsedge, yellow; 62 g ai/ha
  Nutsedge, Yellow plant response rating (0 to 100): 30

## COc1nc(-c2ccc(F)cc2)nn1Cc1ccnc(C(F)(F)F)c1 [Compound 9, 4-[[3-(4-fluorophenyl)-5-methoxy-1H-1,2,4-triazol-1-yl]methyl]-2-(trifluoromethyl)pyridine]
corn
  Corn plant response rating (crop injury, 0 = no effect, 100 = complete kill) at 125 g/ha: 0%
  Corn plant response rating (crop injury, 0 = no effect, 100 = complete kill) at 500 g/ha: 40%
morningglory
  pest or weed control at 125 g/ha: 10%
  pest or weed control at 500 g/ha: 90%
nutsedge, yellow; 125 g ai/ha
  Plant response rating (scale of 0 to 100 where 0 is no effect and 100 is complete control): 35
nutsedge, yellow; 250 g ai/ha
  Plant response rating (scale of 0 to 100 where 0 is no effect and 100 is complete control): 50
nutsedge, yellow; 31 g ai/ha
  Nutsedge, Yellow plant response rating (0 to 100): 10
nutsedge, yellow; 62 g ai/ha
  Nutsedge, Yellow plant response rating (0 to 100): 5

## Cn1nc(-c2ccc(F)cc2)nc1C(O)c1ccnc(C(F)(F)F)c1 (stereo not drawn) [Compound 14, α-[3-(4-fluorophenyl)-1-methyl-1H-1,2,4-triazol-5-yl]-2-(trifluoromethyl)-4-pyridinemethanol]
corn
  Corn plant response rating (crop injury, 0 = no effect, 100 = complete kill) at 125 g/ha: 0%
  Corn plant response rating (crop injury, 0 = no effect, 100 = complete kill) at 500 g/ha: 0%
morningglory
  pest or weed control at 125 g/ha: 0%
  pest or weed control at 500 g/ha: 0%

## CCn1nc(-c2ccc(F)cc2)nc1C(O)c1ccnc(C(F)(F)F)c1 (stereo not drawn) [Compound 15, α-[1-Ethyl-3-(4-fluorophenyl)-1H-1,2,4-triazol-5-yl]-2-(trifluoromethyl)-4-pyridinemethanol]
corn
  Corn plant response rating (crop injury, 0 = no effect, 100 = complete kill) at 125 g/ha: 0%
  Corn plant response rating (crop injury, 0 = no effect, 100 = complete kill) at 500 g/ha: 0%
morningglory
  pest or weed control at 125 g/ha: 0%
  pest or weed control at 500 g/ha: 0%

## CCCn1nc(-c2ccc(F)cc2)nc1Cc1ccnc(C(F)(F)F)c1 [Compound 17, 4-[[3-(4-fluorophenyl)-1-propyl-1H-1,2,4-triazol-5-yl]methyl]-2-(trifluoromethyl)pyridine]
corn
  Corn plant response rating (crop injury, 0 = no effect, 100 = complete kill) at 125 g/ha: 30%
  Corn plant response rating (crop injury, 0 = no effect, 100 = complete kill) at 500 g/ha: 40%
morningglory
  pest or weed control at 125 g/ha: 70%
  pest or weed control at 500 g/ha: 90%

## CCn1nc(-c2ccc(F)cc2)nc1C(=O)c1ccnc(C(F)(F)F)c1 [Compound 19, [1-ethyl-3-(4-fluorophenyl)-1H-1,2,4-triazol-5-yl][2-(trifluoromethyl)-4-pyridinyl]methanone]
corn
  Corn plant response rating (crop injury, 0 = no effect, 100 = complete kill) at 125 g/ha: 0%
  Corn plant response rating (crop injury, 0 = no effect, 100 = complete kill) at 500 g/ha: 0%
morningglory
  pest or weed control at 125 g/ha: 0%
  pest or weed control at 500 g/ha: 0%

## COc1nc(-c2ccc(C(F)(F)F)cc2)nn1Cc1ccnc(C(F)(F)F)c1 [Compound 25]
blackgrass; 31 g ai/ha
  Plant response rating, Blackgrass: 10
blackgrass; 125 g ai/ha
  Plant response rating, Blackgrass: 30
ragweed; 31 g ai/ha
  Plant response rating, Ragweed: 10
ragweed; 125 g ai/ha
  Plant response rating, Ragweed: 20

## CCOc1nc(-c2ccc(Cl)cc2)nn1Cc1ccnc(C(F)(F)F)c1 [Compound 26]
blackgrass; 31 g ai/ha
  Plant response rating, Blackgrass: 30
blackgrass; 125 g ai/ha
  Plant response rating, Blackgrass: 50
ragweed; 31 g ai/ha
  Plant response rating, Ragweed: 60
ragweed; 125 g ai/ha
  Plant response rating, Ragweed: 90

## CS(=O)(=O)c1nc(-c2ccc(F)cc2)nn1Cc1ccnc(C(F)(F)F)c1 [Compound 29, 4-[[3-(4-fluorophenyl)-5-(methylsulfonyl)-1H-1,2,4-triazole-1-yl]methyl]-2-(trifluoromethyl)pyridine]
corn
  Corn plant response rating (crop injury, 0 = no effect, 100 = complete kill) at 125 g/ha: 0%
  Corn plant response rating (crop injury, 0 = no effect, 100 = complete kill) at 500 g/ha: 0%
morningglory
  pest or weed control at 125 g/ha: 0%
  pest or weed control at 500 g/ha: 0%

## COc1nc(-c2ccccc2)nn1Cc1ccnc(C(F)(F)F)c1 [Compound 32]
blackgrass; 125 g ai/ha
  Plant response rating, Blackgrass: 20
blackgrass; 500 g ai/ha
  Plant response rating, Blackgrass: 50
nutsedge, yellow; 125 g ai/ha
  Plant response rating (scale of 0 to 100 where 0 is no effect and 100 is complete control): 5
nutsedge, yellow; 250 g ai/ha
  Plant response rating (scale of 0 to 100 where 0 is no effect and 100 is complete control): 20
nutsedge, yellow; 31 g ai/ha
  Nutsedge, Yellow plant response rating (0 to 100): 0
nutsedge, yellow; 62 g ai/ha
  Nutsedge, Yellow plant response rating (0 to 100): 0
ragweed; 125 g ai/ha
  Plant response rating, Ragweed: 0
ragweed; 500 g ai/ha
  Plant response rating, Ragweed: 40

## CCCOc1nc(-c2ccccc2)nn1Cc1ccnc(C(F)(F)F)c1 [Compound 33]
blackgrass; 125 g ai/ha
  Plant response rating, Blackgrass: 30
blackgrass; 500 g ai/ha
  Plant response rating, Blackgrass: 50
ragweed; 125 g ai/ha
  Plant response rating, Ragweed: 20
ragweed; 500 g ai/ha
  Plant response rating, Ragweed: 30
